According to ChEMBL document CHEMBL1955725, “Structure-guided lead optimization of triazolopyrimidine-ring substituents identifies potent Plasmodium falciparum dihydroorotate dehydrogenase inhibitors with clinical candidate potential” (J Med Chem, 2011):
≈ marks a conversion by molar mass, not a printed value.

Tested on: Plasmodium falciparum
Experiment: Antimalarial activity against Plasmodium falciparum 3D7 0087/N9 infected in human RBC engrafted NOD-SCID IL-2Rgamma-null mouse assessed as reduction in parasitemia administered orally 3 days post infection qd for 4 days measured 24 hrs after final dose by FACS analysis
Format: functional
Conditions: 3D7 0087/N9, po

SMILES	ED50	ED90
Cc1cc(Nc2cc(F)c(C(F)(F)F)c(F)c2)n2ncnc2n1	19 mg/kg	59 mg/kg
C[C@H]1[C@H](OC(=O)CCC(=O)O)O[C@@H]2O[C@@]3(C)CC[C@H]4[C@H](C)CC[C@@H]1[C@@]24OO3 [ARTESUNATE]	–	12.7 mg/kg
CCN(CC)CCCC(C)Nc1ccnc2cc(Cl)ccc12 (stereo not drawn) [CHLOROQUINE]	3.2 mg/kg	4.9 mg/kg

Tested on: Mus musculus
Experiment: AUC (0 to 10 hrs) in human RBC engrafted NOD-SCID IL-2Rgamma-null mouse at 10 mg/kg, po
Format: ADME, organism-based, Plasma
Parameters: time < 10 hr, dose 10 mg/kg, route oral
Conditions: in vivo

SMILES	AUC
Cc1cc(Nc2cc(F)c(C(F)(F)F)c(F)c2)n2ncnc2n1	3848 µM·min

Tested on: Mus musculus
Experiment: AUC (0 to 10 hrs) in human RBC engrafted NOD-SCID IL-2Rgamma-null mouse infected with Plasmodium falciparum 3D7 0087/N9 at 10 mg/kg, po
Format: ADME, organism-based, Plasma
Parameters: time < 10 hr, dose 10 mg/kg, route oral
Conditions: in vivo

SMILES	AUC
Cc1cc(Nc2cc(F)c(C(F)(F)F)c(F)c2)n2ncnc2n1	3173 µM·min

Tested on: not listed separately
Experiment: Cmax in human RBC engrafted NOD-SCID IL-2Rgamma-null mouse at 10 mg/kg, po
Format: ADME, organism-based
Parameters: dose 10 mg/kg, route oral
Conditions: in vivo

SMILES	Cmax
Cc1cc(Nc2cc(F)c(C(F)(F)F)c(F)c2)n2ncnc2n1	8.5 µM

Tested on: not listed separately
Experiment: Cmax in human RBC engrafted NOD-SCID IL-2Rgamma-null mouse infected with Plasmodium falciparum 3D7 0087/N9 at 10 mg/kg, po
Format: ADME, organism-based
Parameters: dose 10 mg/kg, route oral
Conditions: in vivo

SMILES	Cmax
Cc1cc(Nc2cc(F)c(C(F)(F)F)c(F)c2)n2ncnc2n1	8.2 µM

Tested on: Plasma
Experiment: Plasma protein binding in human by chromatographic method
Format: ADME, cell-free
Conditions: not given

SMILES	PPB
CCc1nc2nc(C)cc(Nc3ccc(Cl)cc3)n2n1	86.1%
CCc1nc2nc(C)cc(Nc3ccc(C(F)(F)F)cc3)n2n1	87.5%
CCc1nc2nc(C)cc(Nc3ccc(S(F)(F)(F)(F)F)cc3)n2n1	96.4%
Cc1cc(Nc2ccc(Cl)cc2)n2nc(C(C)C)nc2n1	84.9%
Cc1cc(Nc2ccc(C(F)(F)F)cc2)n2nc(C3CC3)nc2n1	92.8%

Tested on: Liver microsomes
Experiment: Intrinsic clearance in human liver microsomes
Format: ADME, Microsome
Conditions: not given

SMILES	Intrinsic clearance
CCc1nc2nc(C)cc(Nc3ccc(Cl)cc3)n2n1	12.8 µL/min/mg
CCc1nc2nc(C)cc(Nc3ccc(C(F)(F)F)cc3)n2n1	< 5 µL/min/mg
CCc1nc2nc(C)cc(Nc3ccc(S(F)(F)(F)(F)F)cc3)n2n1	< 5 µL/min/mg
Cc1cc(Nc2ccc(Cl)cc2)n2nc(C(C)C)nc2n1	14.1 µL/min/mg
Cc1cc(Nc2ccc(C(F)(F)F)cc2)n2nc(C3CC3)nc2n1	< 5 µL/min/mg

Tested on: Liver
Experiment: Intrinsic clearance in mouse liver microsomes
Format: ADME, Microsome
Conditions: not given

SMILES	Intrinsic clearance
CCc1nc2nc(C)cc(Nc3ccc(Cl)cc3)n2n1	63.1 µL/min/mg
CCc1nc2nc(C)cc(Nc3ccc(C(F)(F)F)cc3)n2n1	14.4 µL/min/mg
CCc1nc2nc(C)cc(Nc3ccc(S(F)(F)(F)(F)F)cc3)n2n1	16.7 µL/min/mg
Cc1cc(Nc2ccc(Cl)cc2)n2nc(C(C)C)nc2n1	157.7 µL/min/mg
Cc1cc(Nc2ccc(C(F)(F)F)cc2)n2nc(C3CC3)nc2n1	8.6 µL/min/mg

Tested on: not listed separately
Experiment: Terminal elimination half life in Swiss outbred mouse at 20 mg/kg, po
Format: ADME, organism-based
Parameters: dose 20 mg/kg, route oral
Conditions: in vivo, read-out: beta t1/2 (converted)

SMILES	half-life
CCc1nc2nc(C)cc(Nc3ccc(C(F)(F)F)cc3)n2n1	8.4 h

Tested on: not listed separately
Experiment: Cmax in Swiss outbred mouse at 20 mg/kg, po
Format: ADME, organism-based
Parameters: dose 20 mg/kg, route oral
Conditions: in vivo

SMILES	Cmax
CCc1nc2nc(C)cc(Nc3ccc(C(F)(F)F)cc3)n2n1	12.6 µM

Tested on: Mus musculus
Experiment: Time plasma concentration remained above 1 uM in Swiss outbred mouse plasma at 20 mg/kg, po
Format: ADME, organism-based
Parameters: dose 20 mg/kg, route oral
Conditions: in vivo

SMILES	Time
CCc1nc2nc(C)cc(Nc3ccc(C(F)(F)F)cc3)n2n1	5 h

Tested on: not listed separately
Experiment: AUC (0 to infinity) in Swiss outbred mouse plasma at 20 mg/kg, po
Format: ADME, organism-based
Parameters: time infinity, dose 20 mg/kg, route oral
Conditions: not given

SMILES	AUC(0-inf)
CCc1nc2nc(C)cc(Nc3ccc(C(F)(F)F)cc3)n2n1	27.1 µM·h

Tested on: not listed separately
Experiment: Inhibition of Plasmodium berghei C-terminal hexa-His tagged DHODH expressed in Escherichia coli by DCIP reduction assay
Conditions: not given

SMILES	IC50
CCc1nc2nc(C)cc(Nc3ccc(Cl)cc3)n2n1	2300 nM
CCc1nc2nc(C)cc(Nc3ccc(C(F)(F)F)cc3)n2n1	760 nM
CCc1nc2nc(C)cc(Nc3ccc(S(F)(F)(F)(F)F)cc3)n2n1	1400 nM
Cc1cc(Nc2ccc(Cl)cc2)n2nc(C(C)C)nc2n1	2100 nM
Cc1cc(Nc2ccc(C(F)(F)F)cc2)n2nc(C3CC3)nc2n1	2600 nM

Tested on: Plasmodium falciparum
Experiment: Antimalarial activity against Plasmodium falciparum 3D7 by [3H]hypoxanthine incorporation assay in presence of human serum
Format: functional, organism-based
Conditions: not given

SMILES	EC50
CCc1nc2nc(C)cc(Nc3ccc(Cl)cc3)n2n1	790 nM
CCc1nc2nc(C)cc(Nc3ccc(C(F)(F)F)cc3)n2n1	58 nM
CCc1nc2nc(C)cc(Nc3ccc(S(F)(F)(F)(F)F)cc3)n2n1	100 nM
Cc1cc(Nc2ccc(Cl)cc2)n2nc(C(C)C)nc2n1	850 nM
Cc1cc(Nc2ccc(C(F)(F)F)cc2)n2nc(C3CC3)nc2n1	150 nM

Tested on: not listed separately
Experiment: Lipophilicity, log D of the compound at pH 7.4
Format: physicochemical
Conditions: buffer

SMILES	logD
CCc1nc2nc(C)cc(Nc3ccc(Cl)cc3)n2n1	2.8
CCc1nc2nc(C)cc(Nc3ccc(C(F)(F)F)cc3)n2n1	3
CCc1nc2nc(C)cc(Nc3ccc(S(F)(F)(F)(F)F)cc3)n2n1	3.3
Cc1cc(Nc2ccc(Cl)cc2)n2nc(C(C)C)nc2n1	3.2
Cc1cc(Nc2ccc(C(F)(F)F)cc2)n2nc(C3CC3)nc2n1	3.3

Tested on: not listed separately
Experiment: Aqueous solubility of the compound at pH 6.5
Format: physicochemical
Conditions: not given

SMILES	solubility
CCc1nc2nc(C)cc(Nc3ccc(Cl)cc3)n2n1	170 µM (≈ 48.9 µg/mL)
CCc1nc2nc(C)cc(Nc3ccc(C(F)(F)F)cc3)n2n1	39 µM (≈ 12.5 µg/mL)
CCc1nc2nc(C)cc(Nc3ccc(S(F)(F)(F)(F)F)cc3)n2n1	34 µM (≈ 12.9 µg/mL)
Cc1cc(Nc2ccc(Cl)cc2)n2nc(C(C)C)nc2n1	83 µM (≈ 25 µg/mL)
Cc1cc(Nc2ccc(C(F)(F)F)cc2)n2nc(C3CC3)nc2n1	38 µM (≈ 12.7 µg/mL)

Target: T1, Dihydroorotate dehydrogenase (Plasmodium falciparum, UniProt Q54A96)
T1 sequence (Q54A96 whole entry): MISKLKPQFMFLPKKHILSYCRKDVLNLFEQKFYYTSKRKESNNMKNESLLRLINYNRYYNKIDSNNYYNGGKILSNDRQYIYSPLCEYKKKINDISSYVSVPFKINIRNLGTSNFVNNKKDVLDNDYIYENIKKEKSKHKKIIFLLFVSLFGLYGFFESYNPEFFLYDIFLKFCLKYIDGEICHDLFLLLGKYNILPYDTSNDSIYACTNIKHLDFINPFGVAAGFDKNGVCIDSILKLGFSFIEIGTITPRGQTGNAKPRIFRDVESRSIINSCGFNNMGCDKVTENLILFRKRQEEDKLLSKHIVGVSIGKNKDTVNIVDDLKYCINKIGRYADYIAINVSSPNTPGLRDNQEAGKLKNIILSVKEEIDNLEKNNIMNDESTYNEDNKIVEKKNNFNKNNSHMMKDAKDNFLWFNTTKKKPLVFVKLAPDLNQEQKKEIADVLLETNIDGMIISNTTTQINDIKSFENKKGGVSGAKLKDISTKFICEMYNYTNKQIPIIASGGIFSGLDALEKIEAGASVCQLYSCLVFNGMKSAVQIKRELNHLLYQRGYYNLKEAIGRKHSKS
Experiment: not given
Conditions: not given

SMILES	IC50
CCc1nc2nc(C)cc(Nc3ccc(Cl)cc3)n2n1	280 nM
CCc1nc2nc(C)cc(Nc3ccc(C(F)(F)F)cc3)n2n1	87 nM
Cc1cc(Nc2ccc(Cl)cc2)n2nc(C(C)C)nc2n1	330 nM
Cc1cc(Nc2ccc(C(F)(F)F)cc2)n2nc(C3CC3)nc2n1	140 nM

Target: Dihydroorotate dehydrogenase (quinone), mitochondrial (Homo sapiens, UniProt Q02127)
Sequence (Q02127 whole entry): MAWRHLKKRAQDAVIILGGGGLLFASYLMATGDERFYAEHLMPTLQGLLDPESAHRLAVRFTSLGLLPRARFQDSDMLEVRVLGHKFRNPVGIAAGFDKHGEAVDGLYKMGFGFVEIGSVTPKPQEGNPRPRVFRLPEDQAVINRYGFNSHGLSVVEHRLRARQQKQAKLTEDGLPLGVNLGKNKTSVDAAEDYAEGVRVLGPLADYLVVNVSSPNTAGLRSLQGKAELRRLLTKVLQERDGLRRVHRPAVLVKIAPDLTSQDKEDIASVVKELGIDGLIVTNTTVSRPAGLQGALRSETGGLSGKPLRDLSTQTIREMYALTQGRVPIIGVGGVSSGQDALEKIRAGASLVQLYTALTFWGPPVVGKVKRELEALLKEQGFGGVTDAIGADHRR
Experiment: not given
Conditions: not given

SMILES	IC50
CCc1nc2nc(C)cc(Nc3ccc(C(F)(F)F)cc3)n2n1	> 100000 nM
CCc1nc2nc(C)cc(Nc3ccc(S(F)(F)(F)(F)F)cc3)n2n1	> 100000 nM
Cc1cc(Nc2ccc(C(F)(F)F)cc2)n2nc(C3CC3)nc2n1	> 100000 nM

Tested on: not listed separately
Experiment: in vivo
Conditions: NOD-SCID IL-2Rgamma-null, mouse, po, 10 mg/kg

SMILES	Tmax
Cc1cc(Nc2cc(F)c(C(F)(F)F)c(F)c2)n2ncnc2n1	2 h

Tested on: not listed separately
Experiment: in vivo
Conditions: NOD-SCID IL-2Rgamma-null, mouse, po, 10 mg/kg
Remark: another data set of the same source

SMILES	Tmax
Cc1cc(Nc2cc(F)c(C(F)(F)F)c(F)c2)n2ncnc2n1	3.3 h

Tested on: not listed separately
Experiment: in vivo
Conditions: Swiss outbred, mouse, po, 20 mg/kg

SMILES	Tmax
CCc1nc2nc(C)cc(Nc3ccc(C(F)(F)F)cc3)n2n1	1 h
